Data on six compounds can be found in paper PMC10253860, “Kinetic Profile of Urine Metabolites after Acute Intake of a Phenolic Compounds-Rich Juice of Juçara (Euterpe edulis Mart.) and Antioxidant Capacity in Serum and Erythrocytes: A Human Study” (International Journal of Molecular Sciences, 2023).

The nature of data set [1]: Urinary excretion of phenolic metabolites after single 400 mL juçara juice intake (HPLC-DAD, LC-ESI-MS/MS). It is filed as in vivo, human. The conditions noted are these: for AUC / Cmax: urine, mean ± SEM, n = 9–10; for AUC: 0–6 h after 400 mL juçara juice; for Cmax: 10 healthy subjects, after 400 mL juçara juice. The text has this: Study volunteers were selected according to the following inclusion criteria: no clinical conditions such as cardiovascular, endocrine, gastrointestinal, renal, or hepatic diseases; no visible or known infections or inflammatory processes within three months of the study; no use of medicines or dietary supplements, no smoking, no regular alcohol drinking. The other criteria were BMI < 30 kg/m^2 and no gastric intolerance or complications related to the juçara juice intake. […] The subjects were advised to avoid vegetable and fruit sources of anthocyanins or their derivatives, such as açai, blackberries, blueberries, cherries, red and purple grapes, strawberries, and green and black tea, two days before the study. […] The subjects were also instructed not to practice intense physical activity and not to deprive themselves of sleeping before the outset of the study protocol. […] Subsequently, the participants drank 400 mL of the juçara juice within 5 min. Blood (30, 60, 120, and 360 min) and urine (0–3, 3–6 h) were collected again. The volunteers continued fasting during the 6 h of the sample collection time. The study protocol was based on evidence that anthocyanins appear to be rapidly absorbed and then eliminated within 4 h. […] Blood oxidative stress biomarkers were assessed, and urine metabolites of phenolic compounds were measured.
Phenolic compounds were extracted in urine using Waters OASIS HLB μElution plates (Milford, MA, USA), which were preconditioned with 250 μL methanol and 250 μL 0.2% acetic acid. After urine collection, the samples were immediately acidified with trifluoracetic acid. Aliquots of the samples were applied to the μ Columns of the plates and the phenolic compounds were eluted with methanol acidified with 0.2% acetic acid. The eluate was dried using CentriVap Benchtop Vacuum Concentrators (Labconco, Kansas City, MO, USA), reconstituted with methanol acidified with 5% acetic acid, and filtered with a […] PTEF filter (Millipore, Bedford, MA, USA).
The mobile phase consisted of two solvents: (A) 0.5% formic acid in water and (B) 0.5% formic acid in acetonitrile. The gradient used was 10% (B) at the beginning, 10% at 5 min, 20% at 15 min, 25% at 25 min, 35% at 33 min, 50% at 38 min, 90% at 43–44 min and 10% at 45 min. […] Quantification was based on the calibration curves of the PCA, VA, iVA, HA, HBA, and HPA standards. The concentrations were expressed as μmol/mmol creatinine for urine samples, and the elimination values were expressed in μmol. Urinary creatinine was evaluated using a Labtest kit (Labtest Diagnóstica S.A., Lagoa Santa, Minas Gerais, Brazil). The area under the curve (AUC) was calculated using the trapezoidal rule (data expressed as μmol/h), and the maximum concentration (Cmax) was calculated using the Origin 6.0 software (OriginLab Corporation, Northampton, MA, USA) and expressed as the mean and standard error of the mean (SEM). The samples collected from 0 to 3 h (after the juçara juice intake) were indicated as 3 h urine and the samples collected from 3 to 6 h were designated as 6 h urine to indicate the period of excretion. The standards’ purity varied from 95 to 98%.
Phenolic compounds’ metabolites were identified using a Prominence Liquid Chromatograph (Shimadzu, Japan) coupled to an ion trap Esquires-LC mass spectrometer (Bruker Daltonics, Billerica, MA, USA) with an electrospray ionization (ESI) interface. The chromatography condition was the same as that used for metabolite quantification by HPLC-DAD. After passing through the DAD detector, the flow rate was changed to 0.2 mL/min to inject the samples into the mass spectrometer. ESI was left in the positive mode for anthocyanins and in the negative mode for the other compounds. […] Scanning m/z was 100–1500.

Details of data set [2]: method as in PMID 12488939, PMID 34430750. The conditions noted are these: toluene-free healthy volunteers; cited from earlier work.

Take `COc1cc(C(=O)O)ccc1O[C@@H]1O[C@H](C(=O)O)[C@@H](O)[C@H](O)[C@H]1O` [Vanillic acid glucuronide]: in data set [1], the AUC amounted to 164.38 ± 14.98 µmol/h and the Cmax is on record as 16.74 ± 1.33 µmol/mmol Creatinine.
For `COc1cc(C(=O)O)ccc1O` [Vanillic acid], in that order: 191.42 ± 25.98 µmol/h and 20.13 ± 2.27 µmol/mmol Creatinine.
With `O=C(O)c1ccc(O)c(O)c1.O=C(O)c1ccc(O)c(O)c1` [Protocatechuic acid, 3,4-Dihydroxybenzoic acid (protocatechuic acid)], in data set [1], the AUC is 282.89 ± 49.31 µmol/h and the Cmax stood at 28.26 ± 3.62 µmol/mmol Creatinine.
In the case of `O=C(O)CNC(=O)c1ccccc1` [Hippuric acid], the normal urine value in data set [2] is 126.36–245.13 µmol/mmol creatinine. Moreover, the “average urine concentration at baseline” value in data set [1] (baseline samples, before the juice intake) was “around 243.06 µmol/mmol creatinine”. Besides, in data set [1], the AUC is recorded as 6483.34 ± 1159.82 µmol/h and the Cmax was 605.80 ± 75.74 µmol/mmol Creatinine.
Turning to `O=C(O)Cc1ccc(O)cc1` [Hydroxyphenylacetic acid], in data set [1], the AUC was 3527.78 ± 657.52 µmol/h and the Cmax was 334.09 ± 46.79 µmol/mmol Creatinine.
For `O=C(O)[C@H]1O[C@@H](Oc2c(-c3ccc(O)cc3)oc3cc(O)cc(O)c3c2=O)[C@H](O)[C@@H](O)[C@@H]1O` [Kaempferol glucuronide], in that order: 138.05 ± 20.58 µmol/h and 13.62 ± 1.89 µmol/mmol Creatinine.
